The source of these data is the NIST ThermoML archive (doi:10.1016/j.fluid.2014.04.002).

SMILES strings stand for the structures. Numbers after ± are expanded uncertainties.

For the first data set the following is noted: 288.15 K; 101 kPa; Liquid; Concentric cylinders viscometry.
In general, viscosity refers to the resistance of a fluid to flow. Turning to `CCOC(=O)C(C)O` (racemic) [DL-ethyl lactate], the viscosity came to 3.207 ± 0.062 mPa·s.
Consider `COCCOCCOCCOCCOC` [2,5,8,11,14-pentaoxapentadecane], for which the viscosity came to 4.353 ± 0.075 mPa·s.
The same measure, in the same setting: then `CC(O)CO` (centres undefined) [1,2-propanediol], with 82.54 ± 1.5 mPa·s; and `C1CCOC1` [tetrahydrofuran], with 0.5252 ± 0.01 mPa·s; and `OCCCO` [propan-1,3-diol], with 67.3 ± 1.3 mPa·s.

Still in this data set, the particulars now being: 288.15 K; 101 kPa; Liquid; Vibrating tube method.
Usually mass density stands for the mass of a sample divided by its volume. Consider `CCOC(=O)C(C)O` (racemic) [DL-ethyl lactate], for which the mass density was found to be 1039.28 ± 0.92 kg/m3.
`COCCOCCOCCOCCOC` [2,5,8,11,14-pentaoxapentadecane]: the mass density turned out to be 1016.7 ± 0.24 kg/m3.
The same measure, in the same setting: with `CC(O)CO` (centres undefined) [1,2-propanediol] the figure was 1039.87 ± 0.26 kg/m3.
Still for that read-out and setting: then `C1CCOC1` [tetrahydrofuran], with 893.293 ± 0.23 kg/m3; and `OCCCO` [propan-1,3-diol], with 1055.89 ± 0.95 kg/m3.

Staying with this data set, now noted: 293.15 K; 101 kPa; Liquid; Concentric cylinders viscometry.
Regarding `CCOC(=O)C(C)O` (racemic) [DL-ethyl lactate], the viscosity is recorded as 2.75 ± 0.053 mPa·s.
Same read-out and setting: with `COCCOCCOCCOCCOC` [2,5,8,11,14-pentaoxapentadecane] the figure was 3.795 ± 0.065 mPa·s; with `CC(O)CO` (centres undefined) [1,2-propanediol], 56.62 ± 0.97 mPa·s; with `C1CCOC1` [tetrahydrofuran], 0.5048 ± 0.0098 mPa·s.
In the case of `OCCCO` [propan-1,3-diol], the viscosity was found to be 52.52 ± 1 mPa·s.

Still in this data set, the particulars now being: 293.15 K; 101 kPa; Liquid; Vibrating tube method.
For `CCOC(=O)C(C)O` (racemic) [DL-ethyl lactate], the mass density is 1033.84 ± 0.91 kg/m3.
Regarding `COCCOCCOCCOCCOC` [2,5,8,11,14-pentaoxapentadecane], the mass density came to 1012.06 ± 0.24 kg/m3.
The same measure, in the same setting: with `CC(O)CO` (centres undefined) [1,2-propanediol] the figure was 1036.25 ± 0.26 kg/m3.
Consider `C1CCOC1` [tetrahydrofuran], for which the mass density turned out to be 887.865 ± 0.23 kg/m3.
Still for that read-out and setting: with `OCCCO` [propan-1,3-diol] the figure was 1052.8 ± 0.95 kg/m3.

The data set is the same for the next values; noted with them: 298.15 K; 101 kPa; Liquid; Concentric cylinders viscometry.
Consider `CCOC(=O)C(C)O` (racemic) [DL-ethyl lactate], for which the viscosity came out at 2.39 ± 0.046 mPa·s.
Still for that read-out and setting: with `COCCOCCOCCOCCOC` [2,5,8,11,14-pentaoxapentadecane] the figure was 3.348 ± 0.058 mPa·s; with `CC(O)CO` (centres undefined) [1,2-propanediol], 44.03 ± 0.76 mPa·s.
Turning to `C1CCOC1` [tetrahydrofuran], the viscosity is 0.4847 ± 0.0095 mPa·s.
As for `OCCCO` [propan-1,3-diol], the viscosity turned out to be 41.51 ± 0.8 mPa·s.

Staying with this data set, now noted: 298.15 K; 101 kPa; Liquid; Vibrating tube method.
Regarding `CCOC(=O)C(C)O` (racemic) [DL-ethyl lactate], the mass density was 1028.39 ± 0.9 kg/m3.
Consider `COCCOCCOCCOCCOC` [2,5,8,11,14-pentaoxapentadecane], for which the mass density came out at 1007.42 ± 0.23 kg/m3.
The same measure, in the same setting: then `CC(O)CO` (centres undefined) [1,2-propanediol], with 1032.59 ± 0.26 kg/m3; and `C1CCOC1` [tetrahydrofuran], with 882.403 ± 0.23 kg/m3.
For `OCCCO` [propan-1,3-diol], the mass density is reported as 1049.69 ± 0.94 kg/m3.

Still in this data set, the particulars now being: 303.15 K; 101 kPa; Liquid; Concentric cylinders viscometry.
On to `CCOC(=O)C(C)O` (racemic) [DL-ethyl lactate], for which the viscosity amounted to 2.097 ± 0.041 mPa·s.
Still for that read-out and setting: then `COCCOCCOCCOCCOC` [2,5,8,11,14-pentaoxapentadecane], with 2.983 ± 0.051 mPa·s; and `CC(O)CO` (centres undefined) [1,2-propanediol], with 33.16 ± 0.57 mPa·s.
On the same count and under the same terms, with `C1CCOC1` [tetrahydrofuran] the figure was 0.464 ± 0.0092 mPa·s.
Same read-out and setting: then `OCCCO` [propan-1,3-diol], with 33.2 ± 0.64 mPa·s.

The data set is the same for the next values; noted with them: 303.15 K; 101 kPa; Liquid; Vibrating tube method.
With `CCOC(=O)C(C)O` (racemic) [DL-ethyl lactate], the mass density stood at 1022.92 ± 0.88 kg/m3.
Take `COCCOCCOCCOCCOC` [2,5,8,11,14-pentaoxapentadecane]: the mass density is 1002.79 ± 0.23 kg/m3.
On to `CC(O)CO` (centres undefined) [1,2-propanediol], for which the mass density is 1028.88 ± 0.25 kg/m3.
On the same count and under the same terms, then `C1CCOC1` [tetrahydrofuran], with 876.911 ± 0.23 kg/m3; and `OCCCO` [propan-1,3-diol], with 1046.57 ± 0.93 kg/m3.

The data set is the same for the next values; noted with them: 308.15 K; 101 kPa; Liquid; Concentric cylinders viscometry.
`CCOC(=O)C(C)O` (racemic) [DL-ethyl lactate]: the viscosity was 1.858 ± 0.036 mPa·s.
Same read-out and setting: with `COCCOCCOCCOCCOC` [2,5,8,11,14-pentaoxapentadecane] the figure was 2.668 ± 0.046 mPa·s.
Turning to `CC(O)CO` (centres undefined) [1,2-propanediol], the viscosity stood at 25.45 ± 0.44 mPa·s.
The same measure, in the same setting: then `C1CCOC1` [tetrahydrofuran], with 0.4433 ± 0.0088 mPa·s.
Same read-out and setting: then `OCCCO` [propan-1,3-diol], with 26.86 ± 0.52 mPa·s.

Staying with this data set, now noted: 308.15 K; 101 kPa; Liquid; Vibrating tube method.
For the compound `CCOC(=O)C(C)O` (racemic) [DL-ethyl lactate], the mass density was found to be 1017.42 ± 0.87 kg/m3.
In the case of `COCCOCCOCCOCCOC` [2,5,8,11,14-pentaoxapentadecane], the mass density is 998.153 ± 0.23 kg/m3.
Still for that read-out and setting: with `CC(O)CO` (centres undefined) [1,2-propanediol] the figure was 1025.14 ± 0.25 kg/m3; with `C1CCOC1` [tetrahydrofuran], 871.384 ± 0.23 kg/m3; with `OCCCO` [propan-1,3-diol], 1043.43 ± 0.93 kg/m3.

Still in this data set, the particulars now being: 313.15 K; 101 kPa; Liquid; Concentric cylinders viscometry.
Consider `CCOC(=O)C(C)O` (racemic) [DL-ethyl lactate], for which the viscosity was 1.658 ± 0.032 mPa·s.
On to `COCCOCCOCCOCCOC` [2,5,8,11,14-pentaoxapentadecane], for which the viscosity is given as 2.407 ± 0.042 mPa·s.
Same read-out and setting: then `CC(O)CO` (centres undefined) [1,2-propanediol], with 19.85 ± 0.34 mPa·s; and `C1CCOC1` [tetrahydrofuran], with 0.4227 ± 0.0085 mPa·s.
